Here are results for eight molecules from the supplement of paper PMC11061612.

The subject of experiment [1] is BC-1 (B-Cell Non-Hodgkin's Lymphoma). Kind of experiment: Bliss excess, mean over the matrix (fraction); higher = more synergy. The essentials:
(§1)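 Bliss excess equals the observed combination effect minus the expected value EA + EB − EA·EB, where EA and EB are the effects of each agent alone. Combination Emax is the second-highest inhibition within the matrix. Inhibition was scaled from CellTiter-Glo 2.0 luminescence, with 0 set by vehicle wells and 1 by blank wells, after 72 hours of two-drug dosing of cells plated in 1536-well plates.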

The test system of experiment [2] is TOV-21G (Ovarian Carcinoma). The description is as above. In outline: as §1
Experiment [3] deals with BT-474 (Breast Carcinoma). The description is as above. In outline: as §1
The test system of experiment [4] is IGROV-1 (Ovarian Carcinoma). Described as above. The essentials:
as §1

Experiment [5] relates to NCI-H2170 (Squamous Cell Lung Carcinoma). The experiment is described as above. The essentials:
as §1

The test system of experiment [6] is JJN-3 (Plasma Cell Myeloma). The experiment is described as above. In outline: as §1
The next experiment has as its system GCIY (Gastric Carcinoma). The experiment is described as above. The essentials: as §1
For a further experiment, the system named is SK-MEL-24 (Melanoma). The description is as above. The essentials:
as §1

The subject of experiment [7] is RVH-421 (Melanoma). The experiment is described as above. In outline:
as §1

For experiment [8], the system named is SUP-HD1 (Hodgkin's Lymphoma). The description is as above. The essentials:
as §1

Experiment [9] relates to OCI-M1 (Acute Myeloid Leukemia). The description is as above. The essentials:
as §1

Experiment [10] concerns MRK-nu-1 (Breast Carcinoma). Described as above. The essentials: as §1
For experiment [11], the system named is COR-L105 (Lung Adenocarcinoma). The experiment is described as above. The essentials: as §1
Experiment [12] relates to NTERA-2-cl-D1 (Other Solid Carcinomas). The experiment is described as above. The essentials: as §1
Experiment [13] has as its system OVKATE (Ovarian Carcinoma). The experiment is described as above. In outline: as §1
Another experiment deals with MG-63 (Osteosarcoma). Described as above. In outline:
as §1

Experiment [14] deals with NCI-H1975 (Lung Adenocarcinoma). Described as above. In outline:
as §1

For experiment [15], the system named is RVH-421 (Melanoma). Nature of the experiment: combination Emax (second highest fraction inhibited in the dose matrix, 72 h); higher = more inhibition; extreme values may be limits of the assay. The essentials: as §1

Take `Cc1cc2ncnn2cc1Nc1ncc2c(n1)n(C1CCOCC1)c(=O)n2C` [AZD7648] + C=CCn1c(=O)c2cnc(Nc3ccc(N4CCN(C)CC4)cc3)nc2n1-c1cccc(C(C)(C)O)n1 [AZD1775] (first compound max 10 µM, partner max 1 µM): the Bliss excess in experiment [1] was 0.004; in [2] it was -0.0672; in experiment [3], 0.0103; in [4] it was -0.0431; in [5], -0.0972; in [6], -0.0726. Moreover, the Bliss excess with GCIY (Gastric Carcinoma) is -0.028; in the experiment on SK-MEL-24 (Melanoma), -0.015; in the experiment on RVH-421 (Melanoma) [7] it was 0.0039; in [8], -0.0943; in experiment [9] it was -0.044; in [10] it was 0.0279. Also, the Bliss excess in [11] is -0.0431; in experiment [12], -0.0791; in experiment [13], -0.001; in the experiment on MG-63 (Osteosarcoma), 0.0269; in [14], -0.0107. For the same molecule, the “combination Emax” value in the experiment with RVH-421 (Melanoma) [15] worked out at 0.289.
As for `C[C@@H](c1ccc2nccn2c1)n1nnc2ncc(-c3cnn(C)c3)nc21` [Savolitinib] + CN(CC[C@H](CSC1=CC=CC=C1)NC2=C(C=C(C=C2)S(=O)(=O)NC(=O)C3=CC=C(C=C3)N4CCC(CC4)[C@H](C5=CC=CC=C5C6=CC=C(C=C6)Cl)O)S(=O)(=O)C(F)(F)F)CCO [AZD4320] (first compound max 1 µM, 7x7, partner max 1 µM), the Bliss excess in experiment [2] is -0.0216; in experiment [3] it was -0.0534; in experiment [4], -0.0735; in [5] it was -0.0589; in experiment [6], -0.0374; in experiment [8] it was 0.0355. The Bliss excess in experiment [9] is -0.0212; in [14], -0.0555.
`COc1cc2c(cc1OCCCCCOc1cc3c(cc1OC)C(=O)N1C=C(C)C[C@H]1C=N3)N=C[C@@H]1CC(C)=CN1C2=O` [SG3199] + O=C(c1cc(Cc2n[nH]c(=O)c3ccccc23)ccc1F)N1CCN(C(=O)C2CC2)CC1 [Olaparib] (first compound max 0.001 µM, 7x7, partner max 10 µM): the Bliss excess in experiment [1] was -0.0102; in experiment [2], -0.0322; in [3] it was -0.0487; in experiment [4] it was -0.0101; in experiment [5], -0.009; in [6] it was 0.0128. Besides, the Bliss excess was -0.0152 with GCIY (Gastric Carcinoma); -0.0576 with SK-MEL-24 (Melanoma); -0.0773 in the experiment with RVH-421 (Melanoma) [7]; 0.1 in experiment [8]; -0.0065 in experiment [9]; -0.0642 in experiment [10]. Also, the Bliss excess in [11] was -0.0371; in [12], -0.0586; in experiment [13], -0.0653; in the experiment on MG-63 (Osteosarcoma), -0.0041; in experiment [14], -0.0171. In addition, the “combination Emax” value in the experiment with RVH-421 (Melanoma) [15] was 0.0596.
For `N#Cc1cnc(Nc2cc(NC[C@H]3CNCCO3)c(C(F)(F)F)cn2)cn1` [SRA737] + Nc1ccn([C@@H]2O[C@H](CO)[C@@H](O)C2(F)F)c(=O)n1 [Gemcitabine] (first compound max 10 µM, 7x7, partner max 0.3 µM), the Bliss excess in [1] was 0.0426; in the experiment with GCIY (Gastric Carcinoma), -0.0085; with SK-MEL-24 (Melanoma) it was 0.0307; in [10], 0.0214; in [11], -0.0009; in experiment [12], 0.0301. Moreover, the Bliss excess in experiment [13] is 0.0092; in the experiment with MG-63 (Osteosarcoma), 0.124.
For the molecule `Cc1nc(Nc2ncc(C(=O)Nc3c(C)cccc3Cl)s2)cc(N2CCN(CCO)CC2)n1` [Dasatinib] + CC(=O)Nc1cccc(-n2c(=O)n(C3CC3)c(=O)c3c(Nc4ccc(I)cc4F)n(C)c(=O)c(C)c32)c1 [Trametinib] (first compound max 2 µM, 7x7, partner max 1 µM), the Bliss excess in [1] is 0.0858; in [2], 0.0199; in [3], -0.0493; in [4], -0.0554; in experiment [5], -0.0593; in experiment [6], 0.0148. The Bliss excess in the experiment on GCIY (Gastric Carcinoma) is 0.052; with SK-MEL-24 (Melanoma), 0.141; in experiment [8] it was -0.0782; in [9], 0.0346; in experiment [10], -0.0688; in experiment [11], 0.0567. Further, the Bliss excess in experiment [12] is 0.0638; in [13], -0.0147; in the experiment with MG-63 (Osteosarcoma), -0.0066; in experiment [14], 0.0302.
Consider `CN(CCO)CC[C@H](CSc1ccccc1)Nc1ccc(S(=O)(=O)NC(=O)c2ccc(N3CCC([C@@H](O)c4ccccc4-c4ccc(Cl)cc4)CC3)cc2)cc1S(=O)(=O)C(F)(F)F` [AZD4320] + CC(=O)O[C@H]1C(=O)[C@@]2(C)[C@H]([C@H](OC(=O)c3ccccc3)[C@]3(O)C[C@H](OC(=O)[C@H](O)[C@@H](NC(=O)c4ccccc4)c4ccccc4)C(C)=C1C3(C)C)[C@]1(OC(C)=O)CO[C@@H]1C[C@@H]2O [Paclitaxel] (first compound max 1 µM, 7x7, partner max 3 µM), for which the Bliss excess came to 0.0045 in experiment [1]; 0.131 in the experiment with GCIY (Gastric Carcinoma); 0.0574 with SK-MEL-24 (Melanoma); 0.0162 in experiment [10]; 0.0195 in experiment [11]; 0.0025 in experiment [12]. Moreover, the Bliss excess in experiment [13] was determined as 0.113; with MG-63 (Osteosarcoma) it was 0.0471.
As for `N#Cc1cnc(Nc2cc(NC[C@H]3CNCCO3)c(C(F)(F)F)cn2)cn1` [SRA737] + O=c1[nH]cc(F)c(=O)[nH]1 [5-Fluorouracil] (first compound max 10 µM, 7x7, partner max 20 µM), the Bliss excess in experiment [1] was -0.001; with GCIY (Gastric Carcinoma), -0.0044; in the experiment with SK-MEL-24 (Melanoma) it was -0.0047; in experiment [10] it was 0.0291; in [11], -0.0048; in experiment [12], -0.0757. In addition, the Bliss excess is -0.0286 in experiment [13] and 0.0106 in the experiment with MG-63 (Osteosarcoma).
As for `C[C@@H](c1ccc2nccn2c1)n1nnc2ncc(-c3cnn(C)c3)nc21` [Savolitinib] + CC1(C)CCC(CN2CCN(c3ccc(C(=O)NS(=O)(=O)c4ccc(NCC5CCOCC5)c([N+](=O)[O-])c4)c(Oc4cnc5[nH]ccc5c4)c3)CC2)=C(c2ccc(Cl)cc2)C1 [Venetoclax] (first compound max 1 µM, 7x7, partner max 1 µM), the Bliss excess in [1] is 0.0031; in experiment [2], -0.0577; in [3], -0.0682; in [4], -0.04; in experiment [5], -0.0336; in [6], -0.012. Moreover, the Bliss excess in the experiment with GCIY (Gastric Carcinoma) was -0.0732; in the experiment on SK-MEL-24 (Melanoma) it was -0.0805; in experiment [8] it was 0.034; in experiment [9], -0.0215; in experiment [10] it was 0.0851; in [11] it was -0.0423. For the same molecule, the Bliss excess is -0.0678 in experiment [12], -0.0495 in [13], -0.0157 with MG-63 (Osteosarcoma) and -0.0329 in experiment [14].
